Laboratory results from ChEMBL document CHEMBL3994662, “In vivo instability of platensimycin and platencin: Synthesis and biological evaluation of urea- and carbamate-platensimycin” (Bioorg Med Chem, 2017).
Values after ≈ are worked out from the molar mass of the structure shown.

Experiments:
Plasma [1] = experiment: In vivo stability in C57Bl/6 mouse plasma assessed as compound hydrolysis at 10 mg/kg, iv administered as single dose measured after 60 mins by LC-MS/MS analysis; type: ADME, organism-based; conditions: 1 h
Liver [2] = experiment: In vivo stability in C57Bl/6 mouse liver assessed as compound hydrolysis at 10 mg/kg, iv administered as single dose measured after 60 mins by LC-MS/MS analysis; type: ADME, organism-based; conditions: 1 h
Kidney [3] = experiment: Drug uptake in C57Bl/6 mouse kidney at 10 mg/kg, iv administered as single dose measured after 60 mins by LC-MS/MS analysis; type: ADME, organism-based; conditions: in vivo, 1 h
[4] = In vivo stability in C57Bl/6 mouse urine assessed as compound hydrolysis at 10 mg/kg, iv administered as single dose measured after 60 mins by LC-MS/MS analysis; type: ADME, organism-based; conditions: 1 h
Micrococcus luteus = experiment: Antibacterial activity against Micrococcus luteus ATCC 9431 after 18 hrs by broth dilution method; type: functional; conditions: ATCC 9431, 18 h
Kidney [5] = experiment: In vivo stability in C57Bl/6 mouse kidney assessed as compound hydrolysis at 10 mg/kg, iv administered as single dose measured after 60 mins by LC-MS/MS analysis; type: ADME, organism-based; conditions: 1 h
Staphylococcus aureus = experiment: Antibacterial activity against Staphylococcus aureus ATCC 25923 after 18 hrs by broth dilution method; type: functional; conditions: ATCC 25923, 18 h
Plasma [6] = experiment: Drug uptake in C57Bl/6 mouse plasma at 10 mg/kg, iv administered as single dose measured after 60 mins by LC-MS/MS analysis; type: ADME, organism-based; conditions: in vivo, 1 h
Liver [7] = experiment: Drug uptake in C57Bl/6 mouse liver at 10 mg/kg, iv administered as single dose measured after 60 mins by LC-MS/MS analysis; type: ADME, organism-based; conditions: in vivo, 1 h
[8] = Drug level in C57Bl/6 mouse urine at 10 mg/kg, iv administered as single dose measured after 60 mins by LC-MS/MS analysis; type: ADME, organism-based; conditions: for Drug uptake: mouse, in vivo, 1 h
[9] = Ratio of drug level in C57Bl/6 mouse liver to plasma at 10 mg/kg, iv administered as single dose measured after 60 mins by LC-MS/MS analysis; type: ADME, organism-based
[10] = Drug level in C57Bl/6 mouse urine assessed as platensimycin level at 10 mg/kg, iv administered as single dose measured after 60 mins by LC-MS/MS analysis; type: ADME, organism-based; conditions: in vivo, 1 h
Mus musculus [11] = experiment: AUC (0 to 8 hrs) in C57Bl/6 mouse assessed as platensimycin level at 10 mg/kg, iv administered as single dose by LC-MS/MS analysis; type: ADME, organism-based; set-up: dose 10 mg/kg, time < 8 hr, route intravenous; conditions: in vivo
Mus musculus [12] = experiment: Volume of distribution in C57Bl/6 mouse assessed as platensimycin level at 10 mg/kg, iv administered as single dose by LC-MS/MS analysis; type: ADME, organism-based; conditions: in vivo
[13] = Elimination half life in C57Bl/6 mouse at 10 mg/kg, iv administered as single dose by LC-MS/MS analysis; type: ADME, organism-based; conditions: in vivo, read-out: beta t1/2 (converted)
[14] = Cmax in C57Bl/6 mouse at 10 mg/kg, iv administered as single dose by LC-MS/MS analysis; type: ADME, organism-based; set-up: dose 10 mg/kg, route intravenous; conditions: in vivo
[15] = Ratio of drug level in C57Bl/6 mouse kidney to plasma at 10 mg/kg, iv administered as single dose measured after 60 mins by LC-MS/MS analysis; type: ADME, organism-based
Mus musculus [16] = experiment: Elimination half life in C57Bl/6 mouse assessed as platensimycin level at 10 mg/kg, iv administered as single dose by LC-MS/MS analysis; type: ADME, organism-based; conditions: in vivo
Mus musculus [17] = experiment: AUC (0 to 8 hrs) in C57Bl/6 mouse at 10 mg/kg, iv administered as single dose by LC-MS/MS analysis; type: ADME, organism-based; set-up: dose 10 mg/kg, time < 8 hr, route intravenous; conditions: in vivo
Mus musculus [18] = experiment: Cmax in C57Bl/6 mouse assessed as platensimycin level at 10 mg/kg, iv administered as single dose by LC-MS/MS analysis; type: ADME, organism-based; set-up: dose 10 mg/kg, route intravenous; conditions: in vivo
Plasma [19] = experiment: Drug metabolism in C57Bl/6 mouse plasma assessed as platensimycin formation at 10 mg/kg, iv administered as single dose measured after 60 mins by LC-MS/MS analysis; type: ADME, organism-based; conditions: in vivo, 1 h
[20] = Volume of distribution in C57Bl/6 mouse at 10 mg/kg, iv administered as single dose by LC-MS/MS analysis; type: ADME, organism-based; conditions: in vivo
[21] = Observed clearance in C57Bl/6 mouse at 10 mg/kg, iv administered as single dose by LC-MS/MS analysis; type: ADME, organism-based; conditions: in vivo
[22] = Drug level in mouse hepatic microsomes treated with platensimycin at 1 uM up to 60 mins in presence of NADPH by LC-MS/MS analysis; type: ADME, Liver, Microsome; conditions: 1 h
[23] = Drug level in mouse hepatic microsomes treated with platensimycin at 1 uM up to 60 mins in absence of NADPH by LC-MS/MS analysis; type: ADME, Liver, Microsome; conditions: 1 h
[24] = Elimination half life in C57Bl/6 mouse at 3 mg/kg, iv administered as single dose by LC-MS/MS analysis; type: ADME, organism-based; conditions: in vivo, read-out: beta t1/2 (converted)
[25] = Cmax in C57Bl/6 mouse at 3 mg/kg, iv administered as single dose by LC-MS/MS analysis; type: ADME, organism-based; set-up: dose 3 mg/kg, route intravenous; conditions: in vivo
[26] = In vivo stability in C57Bl/6 mouse muscle assessed as compound hydrolysis at 10 mg/kg, iv administered as single dose measured after 60 mins by LC-MS/MS analysis; type: ADME, organism-based, Muscle tissue; conditions: 1 h
[27] = Volume of distribution in C57Bl/6 mouse at 3 mg/kg, iv administered as single dose by LC-MS/MS analysis; type: ADME, organism-based; conditions: in vivo
Lung [28] = experiment: Drug uptake in C57Bl/6 mouse lung at 10 mg/kg, iv administered as single dose measured after 60 mins by LC-MS/MS analysis; type: ADME, organism-based; conditions: in vivo, 1 h
[29] = Drug uptake in C57Bl/6 mouse adipose tissue at 10 mg/kg, iv administered as single dose measured after 60 mins by LC-MS/MS analysis; type: ADME, organism-based; conditions: in vivo, 1 h
[30] = Drug uptake in C57Bl/6 mouse muscle at 10 mg/kg, iv administered as single dose measured after 60 mins by LC-MS/MS analysis; type: ADME, organism-based, Muscle tissue; conditions: in vivo, 1 h
[31] = In vivo stability in C57Bl/6 mouse adipose tissue assessed as compound hydrolysis at 10 mg/kg, iv administered as single dose measured after 60 mins by LC-MS/MS analysis; type: ADME, organism-based; conditions: 1 h
Lung [32] = experiment: In vivo stability in C57Bl/6 mouse lung assessed as compound hydrolysis at 10 mg/kg, iv administered as single dose measured after 60 mins by LC-MS/MS analysis; type: ADME, organism-based; conditions: 1 h
[33] = Ratio of drug level in C57Bl/6 mouse lung to plasma at 10 mg/kg, iv administered as single dose measured after 60 mins by LC-MS/MS analysis; type: ADME, organism-based
[34] = Cmax in C57Bl/6 mouse at 10 mg/kg, po administered as single dose via gavage by LC-MS/MS analysis; type: ADME, organism-based; set-up: dose 10 mg/kg, route oral; conditions: in vivo
[35] = Oral bioavailability in C57Bl/6 mouse at 10 mg/kg administered as single dose via gavage by LC-MS/MS analysis; type: ADME, organism-based; conditions: in vivo
[36] = Observed clearance in C57Bl/6 mouse at 3 mg/kg, iv administered as single dose by LC-MS/MS analysis; type: ADME, organism-based; conditions: in vivo
[37] = Ratio of drug level in C57Bl/6 mouse muscle to plasma at 10 mg/kg, iv administered as single dose measured after 60 mins by LC-MS/MS analysis; type: ADME, organism-based, Muscle tissue/plasma
[38] = Elimination half life in C57Bl/6 mouse at 10 mg/kg, po administered as single dose via gavage by LC-MS/MS analysis; type: ADME, organism-based; conditions: in vivo, read-out: beta t1/2 (converted)
Mus musculus [39] = experiment: AUC (0 to 8 hrs) in C57Bl/6 mouse at 10 mg/kg, po administered as single dose via gavage by LC-MS/MS analysis; type: ADME, organism-based; set-up: time < 8 hr, dose 10 mg/kg, route oral; conditions: in vivo
Mus musculus [40] = experiment: AUC (0 to 8 hrs) in C57Bl/6 mouse at 3 mg/kg, iv administered as single dose by LC-MS/MS analysis; type: ADME, organism-based; set-up: dose 3 mg/kg, time < 8 hr, route intravenous; conditions: in vivo
Brain = experiment: In vivo stability in C57Bl/6 mouse brain assessed as compound hydrolysis at 10 mg/kg, iv administered as single dose measured after 60 mins by LC-MS/MS analysis; type: ADME, organism-based; conditions: 1 h
Mus musculus [41] = experiment: Cmax in C57Bl/6 mouse assessed as platensimycin ML12 level at 10 mg/kg, iv administered as single dose by LC-MS/MS analysis; type: ADME, organism-based; set-up: dose 10 mg/kg, route intravenous; conditions: in vivo
Mus musculus [42] = experiment: AUC (0 to 8 hrs) in C57Bl/6 mouse assessed as platensimycin ML12 level at 10 mg/kg, iv administered as single dose by LC-MS/MS analysis; type: ADME, organism-based; set-up: dose 10 mg/kg, time < 8 hr, route intravenous; conditions: in vivo
Mus musculus [43] = experiment: Elimination half life in C57Bl/6 mouse assessed as platensimycin ML12 level at 10 mg/kg, iv administered as single dose by LC-MS/MS analysis; type: ADME, organism-based; conditions: in vivo

C[C@]12C[C@@]34C=CC(=O)[C@@](C)(CCNC(=O)Oc5c(O)ccc(C(=O)O)c5O)[C@@H]3[C@H](C[C@@H]1C4)O2
Stability (Plasma [1]): Stable
Stability (Liver [2]): Stable
Drug uptake (Kidney [3]): Active
Stability [4]: Stable
MIC (Micrococcus luteus): > 64 µg/mL
Stability (Kidney [5]): Stable
MIC (Staphylococcus aureus): > 64 µg/mL
Drug uptake (Plasma [6]): Active
Drug uptake (Liver [7]): Active
Drug uptake [8]: Active

C[C@]12C[C@@]34C=CC(=O)[C@@](C)(CCC(=O)Nc5c(O)ccc(C(=O)S[C@H]6CC(=O)[C@@](C)(CCC(=O)Nc7c(O)ccc(C(=O)O)c7O)[C@@H]7[C@@H]8C[C@@H]9C[C@]67C[C@]9(C)O8)c5O)[C@@H]3[C@H](C[C@@H]1C4)O2
Kp at 1 h [9]: 0.6
Drug uptake [10]: < 1%
AUC (Mus musculus [11]): 6.3 µM·h
Vd (Mus musculus [12]): 2.5 L/kg
half-life [13]: 1.1 h
Cmax [14]: 38 µM
Kp at 1 h [15]: 0.2
beta t1/2 (Mus musculus [16]): 1.9 h
AUC (Mus musculus [17]): 18 µM·h
Cmax (Mus musculus [18]): 15 µM
Drug metabolism (Plasma [19]): Metabolite_Detected
Vd [20]: 0.33 L/kg
Drug uptake (Plasma [6]): Active
clearance [21]: 11 mL/min/kg
dose excreted at 1 h ([8]; C57Bl/6, mouse, urine, read-out: Drug uptake): < 1%

C[C@]12C[C@@]34C=CC(=O)[C@@](C)(CCC(=O)O)[C@@H]3[C@H](C[C@@H]1C4)O2
Drug metabolism [22]: Metabolite_Detected
Drug metabolism [23]: Metabolite_Detected

C[C@]12C[C@@]34C=CC(=O)[C@@](C)(CCNC(=O)Nc5c(O)ccc(C(=O)O)c5O)[C@@H]3[C@H](C[C@@H]1C4)O2
Stability (Plasma [1]): Stable
Stability (Liver [2]): Stable
Drug uptake (Kidney [3]): Active
Stability [4]: Stable
MIC (Micrococcus luteus): > 64 µg/mL
Stability (Kidney [5]): Stable
MIC (Staphylococcus aureus): > 64 µg/mL
Drug uptake (Plasma [6]): Active
Drug uptake (Liver [7]): Active
Drug uptake [8]: Active

C=C1C[C@@]23C=CC(=O)[C@@](C)(CCC(=O)Nc4c(O)ccc(C(=O)O)c4O)[C@@H]2C[C@@H]1CC3 [PLATENCIN]
Stability (Plasma [1]): Unstable
Kp at 1 h [9]: 3.8
Stability (Liver [2]): Unstable
Drug uptake (Kidney [3]): Active
Stability [4]: Unstable
half-life [24]: 0.22 h
Cmax [25]: 11 µM
Stability [26]: Stable
Vd [27]: 0.46 L/kg
Drug uptake (Lung [28]): Active
Kp at 1 h [15]: 1.4
Drug uptake [29]: Not Active
Drug uptake [30]: Active
Stability [31]: Stable
Stability (Lung [32]): Stable
Kp at 1 h [33]: 0.4
Cmax [34]: 4 µM
Stability (Kidney [5]): Unstable
bioavailability [35]: 10%
clearance [36]: 23 mL/min/kg
Kp at 1 h [37]: 0.1
Drug uptake (Plasma [6]): Active
half-life [38]: 1.3 h
Drug uptake (Liver [7]): Active
AUC (Mus musculus [39]): 2.3 µM·h
AUC (Mus musculus [40]): 6.8 µM·h
Stability (Brain): Stable

COC(=O)c1ccc(O)c(NC(=O)NCC[C@]2(C)C(=O)C=C[C@]34C[C@H]5C[C@H](O[C@@]5(C)C3)[C@H]42)c1O
MIC (Micrococcus luteus): 64 µg/mL (≈ 136 µM)
MIC (Staphylococcus aureus): > 64 µg/mL

C[C@@]1(O)C[C@]23C[C@H]1CC[C@H]2[C@]1(C)CCC(=O)Nc2c(O)ccc(c2O)C(=O)S[C@H]2CC(=O)[C@@](C)(CCC(=O)Nc4c(O)ccc(c4O)C(=O)S[C@H]3CC1=O)[C@@H]1CC[C@@H]3C[C@]21C[C@@]3(C)O
half-life [13]: 0.76 h
Cmax [14]: 150 µM
AUC (Mus musculus [17]): 71 µM·h
Cmax (Mus musculus [41]): 2.3 µM
AUC (Mus musculus [42]): 2.5 µM·h
Vd [20]: 0.08 L/kg
clearance [21]: 3 mL/min/kg
beta t1/2 (Mus musculus [43]): 1.8 h
